Data taken from patent US20220339134A1, “VERY-LONG-CHAIN POLYUNSATURATED FATTY ACIDS, ELOVANOID HYDROXYLATED DERIVATIVES, AND METHODS OF USE” (Board of Supervisors of Louisiana State University and …, priority 2019, published 2022).

Key:
[1] = system: hypothalamic neurons; test: Microelectrode array (MEA) recording of organotypic hypothalamic slices; format: cell-based, Leprdb (db/db diabetic) mice; settings: 500 nM; db/db male and female mice
Experimental: We determined whether ex vivo organotypic culture of hypothalamic slices (200 μm in thickness) obtained from brains of C57BL/6J (WT) mice and age matched Leprdb (db/db diabetic) mice were electrically active and capable of firing trains of action potentials using Maestro microelectrode arrays (MEA) performed with MaestroPro MEA system from Axion Biosystems, GA.
MEA measurements were carried out using a 48-well Microelectrode array (MEA) plate (M768-tMEA-48W) from Axion Biosystems, GA. Each well of the MEA plate, contained a 4×4 grid of […] circular nanoporous PEDOT electrodes embedded in the cell culture substrate, with a pole-to-pole electrode spacing of […]. In preparation for seeding hypothalamic slices, the wells were treated with 0.1% polyethylenimine (PEI) in sodium borate buffer, pH 8.4. Wells were then pre-coated in laminin (6 μg/mL) and the hypothalamic slices (200 μm in thickness) were plated on the electrode grid. […]
Extracellular recordings of spontaneous action potentials were performed in culture medium at 37° C. using the standard neural setting of the MaestroPro MEA system and AxIS software version 1.5.1.12. […] Recorded spike number per electrode were averaged after disregarding noisy electrodes from analysis. […]
Using the MEA system, population level electrical activity was recorded from different hypothalamic neurons. […]

[2] = system: RPE and PRC; test: Subretinal injection of OAβ in WT mice +/- ELVs (RPE flat mount, OCT, qPCR, Western blot); format: in vivo; settings: for OAβ-activated senescence program (p16INK4a, MMP1, p53, p21, p27, Il-6, SASP secretome) followed by RPE and PRC demise: summary of mouse and human RPE data
From the text: (A) In vivo experimental design: 6-month-old C57BL/6J WT mice were divided into 7 groups (n=12/group): non-injected, PBS, OAβ only, OAβ+ELV-N-32, OAβ+ELV-N-34, ELV-N-32 only and ELV-N-34 only. On day 3, mRNA were isolated for Real-Time PCR. On day 7, mice were subjected to OCT and then eyes enucleated and processed for whole mount RPE staining and Western blots. (B) Whole flat mount of RPE with tight junction marker, Zonula occludens-1 (ZO-1) antibody. OAβ disrupted RPE morphology. (C) OAβ effects on retina and RPE by OCT. (D) Thickness of PRC layer was thinner in OAβ injected group. (E) RPE gene expression after Oaβ (1-42) injection and treatment with ELVs. (E-G) Gene expression in the same functional group were plotted. Senescence- and AMD-related genes (E), and collagenases, gelatinase, stromelysins and others matrix metalloproteinases (MMP) (F) and autophagy (G). (H) p16INK4a, a key marker for senescence, western blots of RPE. (I) Retina apoptosis gene expression after OAβ (1-42) injection and treatment with ELVs. (*P<0.05, student t-test).
ELVs restore RPE morphology and reduce gene expression after subretinal injection of OAβ in WT mice. (A) Mice were divided into 7 groups: non-injected, PBS, OAβ only, OAβ+ELV-N-32, OAβ+ELV-N-34, ELV-N-32 only and ELV-N-34 only. On day 3, mRNA were isolated for RT-PCR. On day 7, mice were subjected to OCT and then eyes were enucleated and processed to whole mount RPE staining and Western blot. (B) Whole flat mount of RPE. OAβ disrupted RPE morphology. However, RPE were less damage in the ELVs treatment group as well as PBS, ELVs alone did non induce changes. (C) Evaluation the OAβ effects on retina and RPE by OCT. (D) The thickness of PRC was thin in the OAβ injected group. OAβ cause the cell death of PRC, as the thinner in OCT measurement. (E) RPE gene expression after OAβ (1-42) injection and treatment with ELVs. 3 days after injection, the RNAs from RPE were isolated, reverse transcribed into cDNA and subjected to RT-PCR with different primers. Genes in the same functional group were plotted in the same chart, including senescence- and AMD-related genes (E), and collagenases, gelatinase, stromelysins and others matrix metalloproteinases (MMP) (F) and autophagy (G). (H) p16INK4a western blots of RPE/Choroid. […] (I) Retina gene expression after OAβ (1-42) injection and treatment with ELVs. OAβ activates apoptosis genes in the retina. […] (*P<0.05, using student t-test comparison).
All animal experiments were performed according to ARVO Statement for the Use of Animals in Ophthalmic and Vision Research, and the protocol was approved by LSU Health New Orleans' Institutional Animal Care and Use Committee (IACUC). 6-month-old 5×FAD mice (stock number: 34848-JAX, The Jackson Laboratory, Bar Harbor, Me., USA), co-overexpress FAD mutant forms of human amyloid precursor protein (the Swedish mutation: K670N, M671L; the Florida mutation: I716V; and the London mutation: V7171) and presenilin 1 (PS1, encoded by Psen1: M146L, L286V) transgenes under transcriptional control of the neuron-specific mouse Thy1 promoter. 5×FAD mice were hemizygotes with respect to the transgenes and non-transgenic WT littermates. Genotyping was performed by PCR of tail DNA. All analyses were carried out blind with respect to the mice genotype. For the subretinal injection, 6-month-old C57BL/6J mice were anesthetized by an intraperitoneal injection of ketamine/xylazine, pupils dilated with 1.0% tropicamide (Akorn, Ill., USA); and 0.5% Proparacaine Hydrochloride (Akorn) was applied for topical anesthesia. Eyes were punctured with a 30-gauge needle between the corneoscleral junction and the ora serrata into the vitreous cavity without disturbing the lens. Compounds were delivered to the subretinal region using a 33-gauge blunt needle attached to a 5p.1 Hamilton syringe (Hamilton Company, Reno, Nev., USA) under a dissecting microscope. Non-injected mice were used as negative control while the PBS injected mice were used for sham. […]

[3] = system: primary human RPE cells; test: Primary human RPE cells treated with 10 μM OAβ +/- ELVs (SA-β-Gal staining, qPCR); format: cell-based; settings: 3 days qPCR, 7 days staining
Experimental: (A) In vitro experimental design: Primary human RPE cells were treated with 10 μM OAβ+/−ELVs. After 3 days, RNA was isolated and qPCR analyzed. After 7 days, cells were subjected to β-Galactosidase staining. (B) Live cell images under bright field microscopy after 7 days. (C) β-Gal staining+/−ELVs. Quantitation of % for the β-Gal positive cells. ELVs decreased positive senescent cells. (D) Gene transcription of senescence, AMD-related and autophagy genes after OAβ (1-42) exposure+/−ELVs. (*P <0.05, student t-test).
OAβ toxicity is counteracted by ELVs in primary hRPE. (A) Primary hRPE cells were treated with 10 μM OAβ with or without adding ELVs. After 3 days, the total RNA was isolated and q-PCR analyzed. After 7 days, cells were subjected to β-Galactosidase staining. (B) Live cell images of primary hRPE under bright field microscope imaging after 7 days. (C) β-Galactosidase staining of primary hRPE, +/−ELVs. Quantitation of % for the β-Gal positive cells. ELVs decreased positive senescent cells. […]
Cells were visualized using SA-β-Gal staining kit (Cat 9860, Cell Signaling Technology, MA, USA). […] Pictures were taken under brightfield microscope (Nikon Eclipse TS100) 200× magnification after the development of blue color, and cells counted in 10 different random fields per well. […]

[4] = system: human RPE cells; test: Oxidative-stress and Erastin induced cell death in human RPE cells; format: cell-based
[5] = system: RPE single-cells; test: UOS-induced transcriptome changes in RPE single-cells; format: cell-based
From the text: Dots in box plots represent expression of the gene for a single RPEC (total of 96 per sample). P<0.001 (***), P<0.01 (**), One-way Anova, with Post-Hoc Tukey HSD test for multiple comparisons.

[6] = methyl ester or sodium salt; administered 1 hour following 2 hours of ischemia; cited from earlier work
[7] = co-injected with OAβ subretinally, then topical ELV, day 7

## CC/C=C\C[C@H](O)\C=C/C=C/C=C/[C@H](O)C/C=C\C/C=C\CCCCCCCCCCCCCCC(=O)[O-].[Na+] [ELV-34-6 Na, sodium (16Z,19Z,22R,23E,25E,27Z,29S,31Z)-22,29-dihydroxytetratriaconta-16,19,23,25,27,31-hexaenoate]
[1]
  spiking activity of hypothalamic slices (MEA): synchronous spiking is restored

## CC/C=C\C[C@H](O)\C=C/C=C/C=C/[C@H](O)C/C=C\C/C=C\CCCCCCCCCCCCC(=O)O [ELV-N-32]
[2]; ELV alone, no OAβ, subretinal
  PRC degeneration / ONL after ELV injected alone: did not yield PRC degeneration
[2]; [7]
  PRC protection (PRC layer, OCT): protection of PRC
  RPE morphology (ZO-1 whole flat mount): restoration of RPE morphology
[2]; elevated by OAβ injection, day 7
  p16INK4a protein (western blot of RPE/Choroid): down regulated
[2]
  OAβ-activated senescence program (p16INK4a, MMP1, p53, p21, p27, Il-6, SASP secretome) followed by RPE and PRC demise: blunt these events and elicit protection to both cells
[2]; listed as ELV 32
  OAβ-activated senescence program (p16INK4a, MMP1, p53, p21, p27, Il-6, SASP secretome) followed by RPE and PRC demise: downregulatory mediators of OAβ-evoked senescence
[2]; listed as elovanoid 32
  OAβ-activated senescence program (p16INK4a, MMP1, p53, p21, p27, Il-6, SASP secretome) followed by RPE and PRC demise: blunt these events and elicits protection
[3]
  OAβ effects: RPE cell morphology, SASP (SA-β-Gal), senescence, AMD, MMP and autophagy gene expression: reverted these effects
[4]
  oxidative-stress and Erastin induced cell deaths: counteracted
[5]
  UOS-induced up-regulation of pro-inflammatory transcriptome and down-regulation of pro-homeostatic pathways: suppress these changes
[6]
  cell survival: promoted cell survival
  infarct volumes: reduced infarct volumes
  neurovascular unit disruption: diminished neurovascular unit disruption

## CC/C=C\C[C@H](O)\C=C/C=C/C=C/[C@H](O)C/C=C\C/C=C\CCC(=O)O [NPD1, 10R,17S-dihydroxy-docosa-4Z,7Z,11E,13E,15Z,19Z-hexaenoic acid, reference compound]
[4]
  oxidative-stress and Erastin induced cell deaths: counteracted
[5]
  UOS-induced up-regulation of pro-inflammatory transcriptome and down-regulation of pro-homeostatic pathways: suppress these changes

## OAβ: oligomerized Aβ (1-42) peptide, used as cytotoxic stressor [reference compound]
[2]; OAβ-injected retina, non-injected retina 105 μm
  PRC layer thickness (OCT): 35 μm
